Assays:
Test in all cases: Mass spectroscopy proteomics, semi-quantitative binding affinity of serum proteins (plaqueproteome, Table 2)
Conditions in all cases: higher number = stronger affinity
[1] = molecular target: T1, Abeta-42 plaque particles (Homo sapiens, UniProt P05067)
T1 construct: Abeta 1-42
Summary of the method: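 AD patient serum or plasma (50% in PBS) was incubated with Abeta-42 aggregates (30 μg) for 1 h at 37 °C, then stained with Thioflavin S for 30 min. Labeled particles were FACS-sorted, trypsin/Lys-C digested overnight and analyzed by MS/MS. Sequest searched human UniProt; Scaffold/Protein Prophet validated the identifications.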

[2] = tested on: High Density cholesterol (Chl Large) plaque particles; set-up: species or system human
Summary of the method: (§1)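 Serum or plasma from atherosclerotic subjects, diluted to 50% in PBS, was incubated with cholesterol aggregates (30 μg per 1 mL reaction) at 37° C for 1 hr. Small and large cholesterol plaque particles were sorted by flow cytometry gating, trypsin-digested and analysed by MS/MS against a human UniProt database.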

[3] = tested on: Low density cholesterol (Chl small) plaque particles; set-up: species or system human
Summary of the method: as §1

[4] = molecular target: T2, alpha-synuclein plaque particles (Homo sapiens, UniProt P37840)
T2 construct: 140 amino acids polypeptide
Summary of the method: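 AD-subject plasma or serum (800 μL of 50%) mixed with 30 μg preformed alpha-synuclein aggregates for 1 h at 37 °C; Thioflavin S-positive particles isolated by flow sorting. After reduction, acrylamide alkylation and overnight tryptic digestion, serum proteins identified by MS/MS with Sequest and Scaffold.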

[5] = tested on: Tau plaque particles; set-up: species or system human
Summary of the method: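 Synthetic Tau-74 and Tau-275 peptides (1 mg/mL PBS, 37° C, 2 h) aggregated; 30 μg aggregates incubated with 50% serum/plasma 1 h at 37° C, stained with Thioflavin S, and plaque particles sorted by flow cytometry. Bound proteins trypsin-digested and identified by MS/MS against human UniProt.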

| Substance | Semi-quantitative analysis of proteins binding to different plaque particles: Abeta-42 [1] | Semi-quantitative analysis of proteins binding to different plaque particles: Chl Large [2] | Semi-quantitative analysis of proteins binding to different plaque particles: Chl small [3] | Semi-quantitative analysis of proteins binding to different plaque particles: Synuclein [4] | Semi-quantitative analysis of proteins binding to different plaque particles: Tau [5] |
| --- | --- | --- | --- | --- | --- |
| Ig heavy chain V-III region VH26 | 7 | 2 | 3 | 1 | 3 |
| Myosin-13 | 17 | 0 | 0 | 0 | 0 |
| Gelsolin | 2 | 8 | 9 | 6 | 9 |
| Hemoglobin subunit delta | 0 | 0 | 0 | 2 | 0 |
| Complement component C7 | 0 | 4 | 6 | 1 | 4 |
| Cluster of Nucleolar RNA helicase 2 | 2 | 0 | 0 | 0 | 0 |
| Ig heavy chain V-III region JON | 0 | 0 | 1 | 1 | 1 |
| Serum amyloid P-component | 5 | 1 | 1 | 0 | 2 |
| Histone H1.2 | 2 | 0 | 0 | 0 | 0 |
| Plasma kallikrein | 0 | 1 | 3 | 0 | 3 |
| Ig kappa chain V-III region VG | 0 | 1 | 0 | 1 | 0 |
| Serotransferrin | 46 | 66 | 73 | 78 | 48 |
| Alpha-2-macroglobulin | 32 | 43 | 43 | 44 | 45 |
| Ig gamma-4 chain C region | 7 | 7 | 11 | 8 | 11 |
| Ig kappa chain V-I region CAR | 5 | 1 | 1 | 1 | 1 |
| Filaggrin | 2 | 0 | 0 | 0 | 0 |
| Ig kappa chain V-I region DE | 5 | 5 | 1 | 3 | 2 |
| Isoform 2 of Fibrinogen alpha chain | 0 | 0 | 1 | 0 | 1 |
| Hemopexin | 11 | 22 | 16 | 18 | 16 |
| Ig alpha-1 chain C region | 9 | 10 | 8 | 11 | 12 |
| Ig kappa chain V-I region HK102 | 5 | 1 | 1 | 1 | 1 |
| Ig heavy chain V-III region TIL | 5 | 0 | 2 | 0 | 2 |
| Glyceraldehyde-3-phosphate dehydrogenase | 5 | 0 | 0 | 0 | 0 |
| Myosin-1 | 22 | 0 | 0 | 0 | 0 |
| Phosphatidylcholine-sterol acyltransferase | 0 | 1 | 0 | 1 | 0 |
| Cluster of Histone H1.2 | 2 | 0 | 0 | 0 | 0 |
| Complement component C8 beta chain | 0 | 1 | 2 | 0 | 2 |
